In ChEMBL document CHEMBL1909564, “A modular approach to trim cellular targets in anticancer drug discovery” (Bioorg Med Chem Lett, 2011):
Each block holds one molecule with its values, some of them ahead of it. Calls of active or inactive are those of the source. The calls are words filed in the database; no cut-off is given here.

Experiments:
A2780 = assay: Growth inhibition of human A2780 cells; format: functional
HBL-100 [1] = assay: Growth inhibition of human HBL100 cells; format: functional
HeLa [2] = assay: Growth inhibition of human HeLa cells; format: functional
Ishikawa = assay: Growth inhibition of human Ishikawa cells; format: functional
SW1573 [3] = assay: Growth inhibition of human SW1573 cells; format: functional
T47D [4] = assay: Growth inhibition of human T47D cells; format: functional
WiDr [5] = assay: Growth inhibition of human WiDr cells; format: functional
HBL-100 [6] = assay: Cell cycle arrest in human HBL100 cells assessed as accumulation at G2/M phase after 24 hrs by flow cytometry; format: functional, cell-based
SW1573 [7] = assay: Cell cycle arrest in human SW1573 cells assessed as accumulation at G2/M phase after 24 hrs by flow cytometry; format: functional, cell-based
T47D [8] = assay: Cell cycle arrest in human T47D cells assessed as accumulation at G2/M phase after 24 hrs by flow cytometry; format: functional, cell-based
HeLa [9] = assay: Cell cycle arrest in human HeLa cells assessed as accumulation at G2/M phase after 24 hrs by flow cytometry; format: functional, cell-based
WiDr [10] = assay: Cell cycle arrest in human WiDr cells assessed as accumulation at G2/M phase after 24 hrs by flow cytometry; format: functional, cell-based
HBL-100 [11] = assay: Cell cycle arrest in human HBL100 cells assessed as decrease in cells at G1 phase at 7 to 21 uM after 24 hrs by flow cytometry; format: functional, cell-based
SW1573 [12] = assay: Cell cycle arrest in human SW1573 cells assessed as decrease in cells at G1 phase at 7 to 21 uM after 24 hrs by flow cytometry; format: functional, cell-based
T47D [13] = assay: Cell cycle arrest in human T47D cells assessed as decrease in cells at G1 phase at 7 to 21 uM after 24 hrs by flow cytometry; format: functional, cell-based
HeLa [14] = assay: Cell cycle arrest in human HeLa cells assessed as decrease in cells at G1 phase at 7 to 21 uM after 24 hrs by flow cytometry; format: functional, cell-based
WiDr [15] = assay: Cell cycle arrest in human WiDr cells assessed as decrease in cells at G1 phase at 7 to 21 uM after 24 hrs by flow cytometry; format: functional, cell-based
HBL-100 [16] = assay: Cell cycle arrest in human HBL100 cells assessed as decrease in cells at S phase at 7 to 21 uM after 24 hrs by flow cytometry; format: functional, cell-based
SW1573 [17] = assay: Cell cycle arrest in human SW1573 cells assessed as decrease in cells at S phase at 7 to 21 uM after 24 hrs by flow cytometry; format: functional, cell-based
HeLa [18] = assay: Cell cycle arrest in human HeLa cells assessed as decrease in cells at S phase at 7 to 21 uM after 24 hrs by flow cytometry; format: functional, cell-based
T47D [19] = assay: Cell cycle arrest in human T47D cells assessed as decrease in cells at S phase at 7 to 21 uM after 24 hrs by flow cytometry; format: functional, cell-based
WiDr [20] = assay: Cell cycle arrest in human WiDr cells assessed as decrease in cells at S phase at 7 to 21 uM after 24 hrs by flow cytometry; format: functional, cell-based
HBL-100 [21] = assay: Induction of apoptosis in human HBL100 cells assessed as increase in sub-G1 DNA content at 7 to 21 uM after 24 hrs by flow cytometry; format: functional
SW1573 [22] = assay: Induction of apoptosis in human SW1573 cells assessed as increase in sub-G1 DNA content at 7 to 21 uM after 24 hrs by flow cytometry; format: functional
HeLa [23] = assay: Induction of apoptosis in human HeLa cells assessed as increase in sub-G1 DNA content at 7 to 21 uM after 24 hrs by flow cytometry; format: functional
T47D [24] = assay: Induction of apoptosis in human T47D cells assessed as increase in sub-G1 DNA content at 7 to 21 uM after 24 hrs by flow cytometry; format: functional
WiDr [25] = assay: Induction of apoptosis in human WiDr cells assessed as increase in sub-G1 DNA content at 7 to 21 uM after 24 hrs by flow cytometry; format: functional
HeLa [26] = assay: Induction of apoptosis in human HeLa cells assessed as PARP cleavage at 7 to 21 uM after 24 hrs by immunoblotting; format: functional, cell-based
HeLa [27] = assay: Cell cycle arrest in human HeLa cells assessed as decrease in phosphorylated RB protein at 7 to 21 uM after 24 hrs by Western blot analysis; format: functional, cell-based
HeLa [28] = assay: Cell cycle arrest in human HeLa cells assessed as effect on cyclin B1 protein at 7 to 21 uM after 24 hrs by Western blot analysis; format: functional, cell-based
HeLa [29] = assay: Cell cycle arrest in human HeLa cells assessed as increase in level of phosphorylated histone H3 at ser10 at 7 to 21 uM after 24 hrs by Western blot analysis; format: functional, cell-based
HeLa [30] = assay: Cell cycle arrest in human HeLa cells assessed as phosphorylated histone H3 at ser10 at 21 uM after 24 hrs by flow cytometry (reference value: […]); format: functional
HeLa [31] = assay: Cell cycle arrest in human HeLa cells assessed as increase in phosphorylated BubR1 level at 7 to 21 uM after 24 hrs by Western blot analysis; format: functional, cell-based

SMILES: COc1cc([C@@H]2c3cc4c(cc3[C@@H](O[C@@H]3O[C@@H]5CO[C@@H](C)O[C@H]5[C@H](O)[C@H]3O)[C@H]3COC(=O)[C@H]23)OCO4)cc(OC)c1O [ETOPOSIDE]
- GI50 (HBL-100 [1]): 2.3 µM
- GI50 (HeLa [2]): 3 µM
- GI50 (Ishikawa): 11 µM
- GI50 (SW1573 [3]): 15 µM
- GI50 (T47D [4]): 22 µM
- GI50 (WiDr [5]): 23 µM

SMILES: CC(=O)O[C@H]1C(=O)[C@@]2(C)[C@H]([C@H](OC(=O)c3ccccc3)[C@]3(O)C[C@H](OC(=O)[C@H](O)[C@@H](NC(=O)c4ccccc4)c4ccccc4)C(C)=C1C3(C)C)[C@]1(OC(C)=O)CO[C@@H]1C[C@@H]2O [PACLITAXEL]
- GI50 (A2780): 0.00027 µM
- GI50 (HBL-100 [1]): 1.7e-05 µM
- GI50 (SW1573 [3]): 0.005 µM
- GI50 (T47D [4]): 0.00015 µM
- GI50 (WiDr [5]): 0.00022 µM

SMILES: Cn1c(=O)c(=O)n(O)c2c(NCCN3CCOCC3)ncnc21
- GI50 (A2780): > 100 µM
- GI50 (HBL-100 [1]): > 100 µM
- GI50 (HeLa [2]): > 100 µM
- GI50 (Ishikawa): > 100 µM
- GI50 (SW1573 [3]): > 100 µM
- GI50 (T47D [4]): > 100 µM
- GI50 (WiDr [5]): > 100 µM

Second part, led by results:

- GI50 (A2780): > 100 µM
- GI50 (HeLa [2]): > 100 µM
- GI50 (SW1573 [3]): 59 µM
- GI50 (T47D [4]): > 100 µM
SMILES: Cn1c(=O)c(=O)n(O)c2c(NCCc3ccccc3)ncnc21
- GI50 (HBL-100 [1]): 54 µM
- GI50 (Ishikawa): > 100 µM
- GI50 (WiDr [5]): > 100 µM

- GI50 (A2780): > 100 µM
- GI50 (HeLa [2]): 27 µM
- GI50 (SW1573 [3]): 37 µM
- GI50 (T47D [4]): > 100 µM
SMILES: CSc1nc(N)c(N=O)c(NCCc2ccccc2)n1
- GI50 (HBL-100 [1]): 12 µM
- GI50 (Ishikawa): > 100 µM
- GI50 (WiDr [5]): > 100 µM

- GI50 (A2780): 3.4 µM
- GI50 (HeLa [2]): 4.5 µM
- GI50 (SW1573 [3]): 3.2 µM
- GI50 (T47D [4]): 7 µM
SMILES: CNc1ncnc(NCCc2ccccc2)c1N=O
- GI50 (HBL-100 [1]): 3.6 µM
- GI50 (Ishikawa): 3.8 µM
- GI50 (WiDr [5]): 7.2 µM
- Activity (HBL-100 [6]): Dose-dependent effect
- Activity (SW1573 [7]): Dose-dependent effect
- Activity (T47D [8]): Dose-dependent effect
- Activity (HeLa [9]): Dose-dependent effect
- Activity (WiDr [10]): Dose-dependent effect
- Activity (HBL-100 [11]): Active
- Activity (SW1573 [12]): Active
- Activity (T47D [13]): Active
- Activity (HeLa [14]): Active
- Activity (WiDr [15]): Active
- Activity (HBL-100 [16]): Active
- Activity (SW1573 [17]): Active
- Activity (HeLa [18]): Active
- Activity (T47D [19]): Active
- Activity (WiDr [20]): Active
- Activity (HBL-100 [21]): <8.5%
- Activity (SW1573 [22]): <8.5%
- Activity (HeLa [23]): <8.5%
- Activity (T47D [24]): <8.5%
- Activity (WiDr [25]): <8.5%
- Activity (HeLa [26]): inactive
- Activity (HeLa [27]): Active
- Activity (HeLa [28]): inactive
- Activity (HeLa [29]): Active
- Activity (HeLa [30]): 15.1%
- Activity (HeLa [31]): Active
